Legend:
Assay in all cases: relative viability (nuclei count vs DMSO), 5 days (fraction); higher = more cells survive
[1] = compound: C[C@]1(O)C[C@@H](c2nc(-c3ccc4ccc(-c5ccccc5)nc4c3)c3c(N)nccn32)C1 [Linsitinib] + CCNC(=O)c1noc(-c2cc(C(C)C)c(O)cc2O)c1-c1ccc(CN2CCOCC2)cc1 [Luminespib] (partner 0.01 µM)
How it was run: (§1)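 Cells from lung cancer lines were seeded into 1536-well plates and, one day later, dosed by pin tool. Treatments were either a single drug or a fixed dose of an anchor drug with five library-drug doses (not always all listed) in √10 steps. After 5 days, nuclei were stained in a one-step fixation (final 0.05% Triton X-100, 1% formaldehyde, 1 ug/ml Hoechst) and counted on 4× images, and relative viability is the treated-to-vehicle nuclei ratio, as the median of duplicate plates.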

[2] = compound: C[C@]1(O)C[C@@H](c2nc(-c3ccc4ccc(-c5ccccc5)nc4c3)c3c(N)nccn32)C1 [Linsitinib] + Nc1nc2[nH]cc(CCc3ccc(C(=O)N[C@@H](CCC(=O)O)C(=O)O)cc3)c2c(=O)[nH]1 [Pemetrexed] (partner 0.2 µM)
How it was run: as §1

[3] = compound: Cc1ccc(C(=O)N(CCCN)[C@@H](c2nc3cc(Cl)ccc3c(=O)n2Cc2ccccc2)C(C)C)cc1 [Ispinesib] + COc1cccc2cc(-c3nc([C@H]4CC[C@H](C(=O)O)CC4)n4ncnc(N)c34)[nH]c12 [OSI-027] (partner 0.5 µM)
How it was run: as §1

[4] = compound: Cc1ccc(C(=O)N(CCCN)[C@@H](c2nc3cc(Cl)ccc3c(=O)n2Cc2ccccc2)C(C)C)cc1 [Ispinesib] + N=C(N)NC(=N)NCCc1ccccc1 [Phenformin] (partner 250 µM)
How it was run: as §1

Cell Line	relative viability ([1]; first compound 0.01 µM)	relative viability ([1]; first compound 0.03162 µM)	relative viability ([1]; first compound 0.1 µM)	relative viability ([1]; first compound 1 µM)	relative viability ([2]; first compound 0.01 µM)	relative viability ([2]; first compound 0.03162 µM)	relative viability ([2]; first compound 0.1 µM)	relative viability ([2]; first compound 1 µM)	relative viability ([3]; first compound 0.001 µM)	relative viability ([3]; first compound 0.003162 µM)	relative viability ([3]; first compound 0.01 µM)	relative viability ([3]; first compound 0.03162 µM)	relative viability ([3]; first compound 0.1 µM)	relative viability ([4]; first compound 0.001 µM)	relative viability ([4]; first compound 0.003162 µM)	relative viability ([4]; first compound 0.01 µM)	relative viability ([4]; first compound 0.03162 µM)	relative viability ([4]; first compound 0.1 µM)	relative viability ([1]; first compound 0.3162 µM)	relative viability ([2]; first compound 0.3162 µM)
HCC-827	0.733	0.599	0.648	0.657	0.149	0.24	0.32	0.262	0.653	0.801	0.887	0.664	0.437	0.424	0.432	0.457	0.332	0.257		
HOP-62	0.939	0.964	0.923	0.694	0.325	0.251	0.311	0.281	0.756	1.07	1.05	0.76	0.444	0.774	0.728	0.709	0.632	0.225		
LC-2-ad	1	1.07	0.971	0.877	0.272	0.264	0.256	0.259	0.808	0.855	0.973	0.352	0.264	0.646	0.638	0.611	0.285	0.207	0.873	0.266
LCLC-97TM1	0.753	0.854	0.622	0.678	0.157	0.159	0.188	0.157	0.629	0.616	0.553	0.239	0.12	0.356	0.435	0.486	0.336	0.129	0.501	0.124
LCLC-103H	1.06	0.965	0.918	0.838	0.441	0.459	0.46	0.505	0.562	0.585	0.527	0.366	0.357	0.34	0.389	0.366	0.293	0.269	0.813	0.341
LK-2	0.173	0.152	0.187	0.166	0.123	0.285	0.148	0.153	0.2	0.256	0.194	0.176	0.213	0.377	0.475	0.4	0.318	0.291	0.192	0.215
LOU-NH91	0.357	0.355	0.299	0.298	0.405	0.345	0.394	0.392	0.72	0.776	0.83	0.59	0.236	0.708	0.753	0.774	0.563	0.262	0.244	0.357
LU99A	0.272	0.25	0.231	0.216	0.161	0.144	0.193	0.198	0.268	0.294	0.299	0.264	0.189	0.892	0.837	0.965	0.373	0.235	0.241	
LXF-289	0.759	0.669	0.729	0.544	0.879	0.88	0.927	0.861	0.813	0.834	0.806	0.593	0.0721	0.515	0.527	0.541	0.392	0.0531		0.777
NCI-H23	0.218	0.207	0.211	0.203	0.78	0.474	0.786	0.419	0.581	0.656	0.808	0.235	0.201	0.921	0.752	0.795	0.61	0.171	0.219	0.394
NCI-H322M	0.946	0.444	0.856	0.658	0.612	0.605	0.582	0.523	0.621	0.529	0.549	0.448	0.331	0.874	0.891	0.82	0.39	0.389	0.698	0.59
NCI-H358	0.365	0.367	0.299	0.194	0.187	0.168	0.183	0.162	0.999	0.837	1.02	0.392	0.129	0.391	0.351	0.266	0.102	0.0986	0.333	0.141
NCI-H441	0.296	0.327	0.211	0.281	0.246	0.284	0.259	0.291	0.582	0.738	0.517	0.175	0.285	0.977	0.823	0.84	0.247	0.301	0.245	0.234
NCI-H460	0.044	0.0373	0.033	0.0347	0.0547	0.0538	0.065	0.0715	0.787	0.835	1.03	0.417	0.0414	0.557	0.579	0.559	0.0429	0.032	0.0397	
NCI-H727	0.323	0.207	0.346	0.288					0.856	0.707	0.604	0.404	0.361	0.601	0.6	0.385	0.466	0.309	0.268	
NCI-H1623	0.43	0.483	0.5	0.307					0.433	0.439	0.451	0.406	0.4	0.587	0.597	0.617	0.563	0.396		
NCI-H1648					0.95	0.553	0.658	0.826	0.274	0.312	0.212	0.226	0.238							0.592
